The structures appear in SMILES notation.

The assay deals with T1, BpfD (Shewanella oneidensis, UniProt Q8E9G0).
T1 construct: gene SO_4323; BpfDS, cytoplasmic part (S225 to E639) with degenerated GGDEF and EAL domains, Strep-tagged
T1 sequence (Q8E9G0 225-639): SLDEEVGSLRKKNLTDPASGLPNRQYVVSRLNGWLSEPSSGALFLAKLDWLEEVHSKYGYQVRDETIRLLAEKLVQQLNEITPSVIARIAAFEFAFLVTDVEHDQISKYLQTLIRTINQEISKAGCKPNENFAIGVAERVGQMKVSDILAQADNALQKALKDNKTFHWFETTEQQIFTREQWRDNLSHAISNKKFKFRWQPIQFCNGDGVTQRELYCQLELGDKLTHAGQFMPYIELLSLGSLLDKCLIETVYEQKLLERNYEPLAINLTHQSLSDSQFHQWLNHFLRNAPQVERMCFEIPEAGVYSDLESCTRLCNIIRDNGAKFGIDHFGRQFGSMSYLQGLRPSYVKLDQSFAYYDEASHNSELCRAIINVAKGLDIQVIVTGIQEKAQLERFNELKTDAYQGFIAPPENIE
Nature of the assay: isothermal titration calorimetry with purified BpfDS; supported by thermal shift assays. The class given is binding. (ITC needs no label: the signal is the heat of the interaction.)

Regarding `Nc1nc2c(ncn2[C@@H]2O[C@@H]3CO[P@](=O)(O)O[C@H]4[C@@H](O)[C@H](n5cnc6c(=O)[nH]c(N)nc65)O[C@@H]4CO[P@](=O)(O)O[C@H]3[C@H]2O)c(=O)[nH]1` [c-di-GMP], the Kd (usually the constant that tells how readily two partners part at equilibrium) came to 4.38 ± 0.8 µM.

The record behind these values is paper PMC11395469, “BpfD Is a c-di-GMP Effector Protein Playing a Key Role for Pellicle Biosynthesis in Shewanella oneidensis” (International Journal of Molecular Sciences, 2024).
